The record followed here is patent US6365620B2, “Trifluoromethylpyrrolcarboxamides” (Syngenta Crop Protection, Inc., priority 1998, dated 2002).

For `Cn1cc(C(=O)Nc2ccccc2-c2ccccc2)c(C(F)(F)F)c1` [Compound 1.01, N-(2-biphenylyl)-1-methyl-4-trifluoromethylpyrrol-3-carboxamide], the melting point (in general, the temperature, or range, at which the solid turns liquid) lay in the range of 100 to 102 °C.
